Data published in patent US20070238700A1, “N-PHENYL-1,1,1-TRIFLUOROMETHANESULFONAMIDE HYDRAZONE DERIVATIVE COMPOUNDS AND THEIR USAGE IN CONTROLLING PARASITES” (priority 2006, published 2007).
Read-outs that look alike come from different tables or passages of the source.

Experiments:
Rhipicephalus sanguineus [1] = test: Dose response protocol for topical application on brown dog ticks (LD50); details: 24 h mortality, probit analysis
Method: e) Dose response protocol for topical application on brown dog ticks (Rhipicephalus sanguineus): The test determines the level of insecticidal activity of sample compounds or formulations when applied topically on brown dog ticks. Sample compounds were stored prior to use in a freezer (−5±1° C.), unless otherwise specified.
• Mortality: A tick is defined as dead after it gives no apparent response when touched lightly or gently breathed upon, while observed for 30 seconds. • LD50 (Lethal Dose 50): The dose of a topically applied treatment at which 50% of the dog ticks are killed. • Reference compound: To assess an experimental compound for significant acaricidal activity a single dose level is chosen, which is based upon known results from previous experiments using a commercially available active i.e., a reference compound. The reference compound selected is one in common use, and one that has a similar mode of action against the Brown Dog Tick (i.e., the test species), • Recovery container: A recovery container consists of a 500 ml round plastic container measuring 115 mm diameter and 70 mm height, with a tight fitting lid that has 10 small (˜1 mm) holes inserted for air exchange. A 90 mm diameter piece of filter paper was placed on the bottom of the container and moistened with 1 mL of distilled water.
Adult, mixed sex, Brown Dog Ticks (Rhipicephalus sanguineus) were reared as follows: (i) cultured, (ii) transferred unfed, to a testing laboratory, and (iii) then maintained under controlled conditions (i.e., temp. 18°±2° C., humidity 75±5% RH). The ticks used were selected for vigor prior to testing, i.e., capable of actively walking and responsive to being touched or gently breathed upon.
During the testing, the temperature was maintained at 25±1° C. and the humidity was ambient. Seven dose levels (concentrations) of sample compound, in the form of serial dilutions in acetone, were derived from a pilot study and covered a range that produced very low to very high mortality. Groups of ten ticks were treated topically (on the abdomen) with 1 μL of a single dose level of the sample compound. Each test was replicated four times, i.e., employing a total of 40 ticks per dose level of each sample compound. As a control, ten ticks were treated with solvent only (acetone) for each test. Following the treatment, the ticks were held in recovery containers maintained under appropriate rearing conditions for 24 hours. Mortality resulting from the treatments was recorded at 24 hours. […] Press, London (1971).]

Rhipicephalus sanguineus [2] = test: Rapid screening protocol for topical application on brown dog ticks (% mortality); details: data from laboratory 2
Outline: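 Mixed-sex unfed adult ticks each received 1 μL test sample in acetone on the abdomen at a single screening dose chosen above the reference LD90 (fipronil 10 μg/tick), with acetone-only controls; 4 replicates of 10 ticks. Held 24 h at 25±1 °C; ticks unresponsive to light touch over 1 min scored dead, pooled as % mortality.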

Ctenocephalides felis [3] = tested on: Ctenocephalides felis
Outline: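 Adult cat fleas (3–7 days post-emergence), 15 per flask in ≥4 replicates, exposed to a dried acetone residue at 1.26 μg/cm^2 on a Coatasil-treated glass flask base. Held at 25±1° C, 75±5% humidity; mortality (immobile or unable to right) scored at 8, 24 and/or 48 h.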

Ctenocephalides felis [4] = test: Ctenocephalides felis adulticide assay: C. felis dose response (LC50)
Excerpt: c) Ctenocephalides felis Adulticide Assay: C. felis Dose Response
The purpose of this example was to determine the LC50 when cat fleas were contacted with a glass surface treated with sample compounds or formulations prepared as described above. […] The test species was the cat flea (Ctenocephalides felis). The strain used was obtained from external suppliers as pupae and held in the laboratory under testing conditions until the adults had emerged. Fifteen (15) fleas were used in a minimum of four replicates for each dose level (total of 60 fleas per dose level). The insects were selected to be in the adult life stage, aged between 3 and 7 days post emergence.
The compounds to be tested were dissolved in acetone just prior to testing. Samples of compounds were stored in a refrigerator (5±1° C.) unless otherwise specified. During the mortality testing, the temperature was maintained at 25±1° C. Humidity was maintained at 75±5%. The base (area=159 mm^2) of a 100 mL glass Erlenmeyer (conical) flask provided the treatment surface. Flasks were pretreated with Coatasil™ glass treatment to maximise bio-availability of test compounds by preventing them from binding to the glass surface.
The base of the 100 mL Erlenmeyer flask was treated with 0.5 mL of test sample in acetone and gently swirled. This volume was sufficient to cover the base of the flask. Flasks were left to dry for 24 hours before flea exposure. Adult cat fleas were lightly anaesthetised by cooling and then placed into a sorting chamber, which allowed fleas to revive and jump into the Erlenmeyer flasks. Fifteen (15) adult cat fleas were collected in each flask. The top of the flasks were then covered in Parafilm™ and small holes made to allow gas exchange. A 0.5 mL volume of acetone was applied to the base of an Erlenmeyer flask and the testing proceeded in the same manner described above. Cat fleas in the treatment containers were held under testing conditions for 24 hours. Mortality resulting from the treatments was recorded at 8 and 24 hours.

`CC(=NN(C)c1cc(Cl)cc(Cl)c1)c1cc(Cl)ccc1NS(=O)(=O)C(F)(F)F` [Compound 99] was tested, and the “R. sanguineus LD50” value (Rhipicephalus sanguineus [1]) was 3.1 μg/tick, the “R. sanguineus Mortality (%) 24 h” value (Rhipicephalus sanguineus [2]) was 95% and the “C. felis Mortality (%) 8 h” value (Ctenocephalides felis [3]) was 57%. The “C. felis Mortality (%) 24 h” value (Ctenocephalides felis [3]) was 100% and the “C. felis LC50” value (Ctenocephalides felis [4]) was 1.9 ppm.

In the case of `CC(=NN(C)c1cccc(Cl)c1Cl)c1cc(Cl)ccc1NS(=O)(=O)C(F)(F)F` [Compound 100], the “R. sanguineus LD50” value (Rhipicephalus sanguineus [1]) was 4.0 μg/tick, the “R. sanguineus Mortality (%) 24 h” value (Rhipicephalus sanguineus [2]) was 70% and the “C. felis Mortality (%) 8 h” value (Ctenocephalides felis [3]) was 55%. For the same compound, the “C. felis Mortality (%) 24 h” value (Ctenocephalides felis [3]) was 100% and the “C. felis LC50” value (Ctenocephalides felis [4]) was 1.7 ppm.

For `CC(=NN(C)c1ccc(Cl)cc1)c1cc(Cl)ccc1NS(=O)(=O)C(F)(F)F` [Compound 105], the “R. sanguineus LD50” value (Rhipicephalus sanguineus [1]) was 1.4 μg/tick, the “R. sanguineus Mortality (%) 24 h” value (Rhipicephalus sanguineus [2]) was 95% and the “C. felis Mortality (%) 8 h” value (Ctenocephalides felis [3]) was 42%. The “C. felis Mortality (%) 24 h” value (Ctenocephalides felis [3]) was 100% and the “C. felis LC50” value (Ctenocephalides felis [4]) was 3.0 ppm.

In the case of `CC(=NN1CCCC1)c1cc(Cl)ccc1NS(=O)(=O)C(F)(F)F` [Compound 116], the “R. sanguineus LD50” value (Rhipicephalus sanguineus [1]) was 0.74 μg/tick, the “R. sanguineus Mortality (%) 24 h” value (Rhipicephalus sanguineus [2]) was 93% and the “C. felis Mortality (%) 8 h” value (Ctenocephalides felis [3]) was 98%. The “C. felis Mortality (%) 24 h” value (Ctenocephalides felis [3]) was 100% and the “C. felis LC50” value (Ctenocephalides felis [4]) was 2.66 ppm.

With `CCOC(=O)N(CC)N=C(C)c1cc(Cl)ccc1NS(=O)(=O)C(F)(F)F` [Compound 125] the “R. sanguineus LD50” value (Rhipicephalus sanguineus [1]) was 0.64 μg/tick, the “R. sanguineus Mortality (%) 24 h” value (Rhipicephalus sanguineus [2]) was 95% and the “C. felis Mortality (%) 8 h” value (Ctenocephalides felis [3]) was 82%. The “C. felis Mortality (%) 24 h” value (Ctenocephalides felis [3]) was 100% and the “C. felis LC50” value (Ctenocephalides felis [4]) was 3.62 ppm.

For `CCOC(=O)N(C)N=C(C)c1cc(Cl)ccc1NS(=O)(=O)C(F)(F)F` [Compound 126], the “R. sanguineus LD50” value (Rhipicephalus sanguineus [1]) was 0.69 μg/tick, the “R. sanguineus Mortality (%) 24 h” value (Rhipicephalus sanguineus [2]) was 100% and the “C. felis Mortality (%) 8 h” value (Ctenocephalides felis [3]) was 55%. For the same compound, the “C. felis Mortality (%) 24 h” value (Ctenocephalides felis [3]) was 97% and the “C. felis LC50” value (Ctenocephalides felis [4]; data from laboratory 1) was 1.84 ppm.

In the case of `CCOC(=O)N(CC)N=C(CC)c1cc(Cl)ccc1NS(=O)(=O)C(F)(F)F` [Compound 127], the “R. sanguineus LD50” value (Rhipicephalus sanguineus [1]) was 0.54 μg/tick, the “R. sanguineus Mortality (%) 24 h” value (Rhipicephalus sanguineus [2]) was 100% and the “C. felis Mortality (%) 8 h” value (Ctenocephalides felis [3]) was 100%. The “C. felis Mortality (%) 24 h” value (Ctenocephalides felis [3]) was 100% and the “C. felis LC50” value (Ctenocephalides felis [4]) was 1.22 ppm.

With `CCC(=NN1CCCCC1)c1cc(Cl)ccc1NS(=O)(=O)C(F)(F)F` [Compound 129] the “R. sanguineus LD50” value (Rhipicephalus sanguineus [1]) was 0.52 μg/tick, the “R. sanguineus Mortality (%) 24 h” value (Rhipicephalus sanguineus [2]) was 98% and the “C. felis Mortality (%) 8 h” value (Ctenocephalides felis [3]) was 27%. The “C. felis Mortality (%) 24 h” value (Ctenocephalides felis [3]) was 98% and the “C. felis LC50” value (Ctenocephalides felis [4]) was 2.82 ppm.

For `CCC(=NN1CCCCC1)c1cc(Cl)ccc1NS(=O)(=O)C(F)(F)F` [Compound 130], the “R. sanguineus LD50” value (Rhipicephalus sanguineus [1]) was 1.08 μg/tick, the “R. sanguineus Mortality (%) 24 h” value (Rhipicephalus sanguineus [2]) was 98% and the “C. felis Mortality (%) 8 h” value (Ctenocephalides felis [3]) was 34%. For the same compound, the “C. felis Mortality (%) 24 h” value (Ctenocephalides felis [3]) was 91% and the “C. felis LC50” value (Ctenocephalides felis [4]) was 2.36 ppm.

With `CCN(N=C(C)c1cc(Cl)ccc1NS(=O)(=O)C(F)(F)F)C(=O)OC` [Compound 139] the “R. sanguineus LD50” value (Rhipicephalus sanguineus [1]) was 0.39 μg/tick, the “R. sanguineus Mortality (%) 24 h” value (Rhipicephalus sanguineus [2]) was 100% and the “C. felis Mortality (%) 8 h” value (Ctenocephalides felis [3]) was 97%. The “C. felis Mortality (%) 24 h” value (Ctenocephalides felis [3]) was 100% and the “C. felis LC50” value (Ctenocephalides felis [4]) was 5.14 ppm.

`CCC(=NN(CC)C(=O)OC)c1cc(Cl)ccc1NS(=O)(=O)C(F)(F)F` [Compound 140] was tested, and the “R. sanguineus LD50” value (Rhipicephalus sanguineus [1]) was 0.28 μg/tick, the “R. sanguineus Mortality (%) 24 h” value (Rhipicephalus sanguineus [2]) was 100% and the “C. felis Mortality (%) 8 h” value (Ctenocephalides felis [3]) was 89%. For the same compound, the “C. felis Mortality (%) 24 h” value (Ctenocephalides felis [3]) was 100% and the “C. felis LC50” value (Ctenocephalides felis [4]) was 3.70 ppm.

In the case of `CC(=NN(C)c1cccc(C(F)(F)F)c1)c1cc(Cl)ccc1NS(=O)(=O)C(F)(F)F` [Compound 203], the “R. sanguineus LD50” value (Rhipicephalus sanguineus [1]) was 0.68 μg/tick, the “R. sanguineus Mortality (%) 24 h” value (Rhipicephalus sanguineus [2]) was 95% and the “C. felis Mortality (%) 8 h” value (Ctenocephalides felis [3]) was 11%. The “C. felis Mortality (%) 24 h” value (Ctenocephalides felis [3]) was 98% and the “C. felis LC50” value (Ctenocephalides felis [4]) was 1.30 ppm.
